In patent US9169247B2, “Tetrahydro-beta-carboline derivatives, synthesis and use thereof” (Southern Research Institute, priority 2009, dated 2015):
Read-outs that look alike come from different tables or passages of the source.

How the values were obtained:
[1] = system: human MDA-MB-231 breast tumor cells; assay: Growth assay (Cell Titer Glo); assay type: cell-based; details: for inhibition at 10 µM / % Growth Inhibition at 10 μM: mean +/− spread
Procedure: (§1) All human tumor cell lines were obtained from ATCC and grown under standard cell culture conditions at 37° C. in a humidified atmosphere with 5% CO2. Cells were grown in RPMI 1640 supplemented with 5% fetal bovine serum 2 mM glutamine, 100 units/ml penicillin, 100 units/ml streptomycin, and 0.25 μg/ml amphotericin. Cells were harvested at 70 to 90% confluence with trypsin/EDTA and used immediately Cell count and viability was determined by Trypan blue staining followed by hemocytometry. Only cultures displaying >95% cell viability were used for experiments. HMEC were grown according to the specifications from the supplier (Lonzo).
(§2) Tissue culture microtiter 96-well plates were seeded with cells at a density of 5,000 cells/well. The plates were incubated for 18-24 hours prior to any treatment. All test compounds were solubilized in 100% DMSO and diluted with media to obtain a final DMSO concentration of 0.1%. Cell viability was measured 72 hours after treatment by the Cell Titer Glo Assay (Promega), which is a luminescent assay that is an indicator of live cells as a function of metabolic activity and ATP content. The assay was performed according to manufacturer's specifications. Luminescence was measured by a Perkin Elmer Victor® multi-label plate reader.^6
(§3) Dose response curves were analyzed using Prism™ 4 software (GraphPad) to calculate IC50 values using a four parameter logistic equation.

HT-29 = assay: Growth assay (Cell Titer Glo); assay type: cell-based, human; details: HT-29 colon
Procedure: (§4) Compounds 2a-h were tested for tumor cell growth inhibitory activity using the human breast MDA-MB-231 and ZR75-1 tumor cell lines and the colon CACO-2, SW-1116, and HT-29 tumor cell lines.
as §1, §2, §3

ZR75-1 = assay: Growth assay (Cell Titer Glo); assay type: cell-based; details: Homo sapiens, ZR-75-1; ZR75-1 breast; 72 h
Procedure: as §4, §1, §2, §3

SW1116 = assay: Growth assay (Cell Titer Glo); assay type: cell-based; details: Homo sapiens, SW 1116; SW1116 colon; 72 h
Procedure: as §4, §1, §2, §3

CACO-2 = assay: Growth assay (Cell Titer Glo); assay type: cell-based; details: Homo sapiens; CACO-2 colon; 72 h
Procedure: as §4, §1, §2, §3

[2] = Homo sapiens, MDA-MB-231, MDA-MB-231
[3] = Homo sapiens, MDA-MB-231, MDA-MB-231, Tables 1 and 2, read-out: Growth Inhibition IC50, μM (95% CI)
[4] = Homo sapiens, MDA-MB-231, 72 h, MDA-MB-231 breast, 72 h, Tables 3-5, read-out: IC50 value, μM, growth
[5] = MDA-MB-231, Tables 1 and 2, read-out: Growth Inhibition IC50, μM (95% CI)
[6] = MDA-MB-231 breast, 72 h, Tables 3-5, read-out: IC50 value, μM, growth

SMILES	melting point [°C]	IC50 [1, 4] [µM]	inhibition at 10 µM [1, 2] [%]	further results
COC(=O)[C@H]1Cc2c([nH]c3ccccc23)[C@@H](c2cc(OC)ccc2OC)N1 [Compound 1e, (1R,3R) Methyl 1-(2,5-dimethoxyphenyl)-2,3,4,9-tetrahydro-1H-β-carboline-3-carboxylate]	102 to 105	–	–	–
COC(=O)[C@H]1Cc2c([nH]c3ccccc23)[C@H](c2cc(OC)ccc2OC)N1 [Compound 1f, (1S,3R) Methyl 1-(2,5-dimethoxyphenyl)-2,3,4,9-tetrahydro-1H-β-carboline-3-carboxylate]	139 to 142	–	–	–
COC(=O)[C@@H]1Cc2c([nH]c3ccccc23)[C@H](c2cc(OC)ccc2OC)N1 [Compound 1g, (1S,3S) Methyl 1-(2,5-dimethoxyphenyl)-2,3,4,9-tetrahydro-1H-β-carboline-3-carboxylate]	100 to 102	–	–	–
COC(=O)[C@@H]1Cc2c([nH]c3ccccc23)[C@@H](c2cc(OC)ccc2OC)N1 [Compound 1h, (1R,3S) Methyl 1-(2,5-dimethoxyphenyl)-2,3,4,9-tetrahydro-1H-β-carboline-3-carboxylate]	138 to 141	–	–	–
COC(=O)[C@H]1Cc2c([nH]c3ccccc23)[C@@H](c2ccc(Cl)cc2Cl)N1 [Compound 1i, (1R,3R) Methyl-1-(2,4-dichlorophenyl)-2,3,4,9-tetrahydro-1H-β-carboline-3-carboxylate]	88 to 92	–	29	–
COC(=O)[C@H]1Cc2c([nH]c3ccccc23)[C@H](c2ccc(Cl)cc2Cl)N1 [Compound 1j, (1S,3R) Methyl 1-(2,4-dichlorophenyl)-2,3,4,9-tetrahydro-1H-β-carboline-3-carboxylate]	130 to 133	–	78	IC50 [1, 3]: 6.73 µM
COC(=O)[C@@H]1Cc2c([nH]c3ccccc23)[C@H](c2ccc(Cl)cc2Cl)N1 [Compound 1k, (1S,3S)Methyl 1-(2,4-dichlorophenyl)-2,3,4,9-tetrahydro-1H-β-carboline-3-carboxylate]	90 to 92	–	50	–
COC(=O)[C@@H]1Cc2c([nH]c3ccccc23)[C@@H](c2ccc(Cl)cc2Cl)N1 [Compound 1l, (1R,3S)Methyl 1-(2,4-dichlorophenyl)-2,3,4,9-tetrahydro-1H-β-carboline-3-carboxylate]	128 to 130	–	28	–
COC(=O)[C@H]1Cc2c([nH]c3ccccc23)[C@@H](c2ccc(Cl)c(Cl)c2)N1 [Compound 1m, (1R,3R) Methyl-1-(3,4-dichlorophenyl)-2,3,4,9-tetrahydro-1H-β-carboline-3-carboxylate]	90 to 92	–	43	–
COC(=O)[C@H]1Cc2c([nH]c3ccccc23)[C@H](c2ccc(Cl)c(Cl)c2)N1 [Compound 1n, (1S,3R) Methyl-1-(3,4-dichlorophenyl)-2,3,4,9-tetrahydro-1H-β-carboline-3-carboxylate]	140 to 143	–	100	IC50 [1, 3]: 4.62 µM
COC(=O)[C@@H]1Cc2c([nH]c3ccccc23)[C@H](c2ccc(Cl)c(Cl)c2)N1 [Compound 1o, (1S,3S) Methyl-1-(3,4-dichlorophenyl)-2,3,4,9-tetrahydro-1H-β-carboline-3-carboxylate]	88 to 91	–	62	IC50 [1, 3]: 6.98 µM
COC(=O)[C@@H]1Cc2c([nH]c3ccccc23)[C@@H](c2ccc(Cl)c(Cl)c2)N1 [Compound 1p, (1R,3S)Methyl-1-(3,4-dichlorophenyl)-2,3,4,9-tetrahydro-1H-β-carboline-3-carboxylate]	139 to 142	–	48	–
COC(=O)[C@H]1Cc2c([nH]c3ccccc23)[C@@H](c2c(Cl)cccc2Cl)N1 [Compound 1q, (1R,3R) Methyl 1-(2,6-dichlorophenyl)-2,3,4,9-tetrahydro-1H-β-carboline-3 carboxylate]	102 to 105	–	–	–
COC(=O)[C@@H]1Cc2c([nH]c3ccccc23)[C@H](c2c(Cl)cccc2Cl)N1 [Compound 1r, (1S,3S) Methyl 1-(2,6-dichlorophenyl)-2,3,4,9-tetrahydro-1H-β-carboline-3-carboxylate]	101 to 103	–	52	–

Continued, in another order:

melting point [°C]	IC50 [1, 4] [µM]	SMILES	inhibition at 10 µM [1, 2] [%]	further results
–	0.06	COC(=O)[C@H]1Cc2c([nH]c3ccccc23)[C@@H](c2ccccc2Br)N1C(=O)CCl [Compound 2a, Methyl (1R,3R)-1-(2-bromophenyl)-2-(2-chloroacetyl)-2,3,4,9-tetrahydro-1H-β-carboline-3-carboxylate]	–	IC50 (HT-29; Homo sapiens, HT-29, 72 h): 1.9 µM; IC50 (ZR75-1): 3.52 µM; IC50 (SW1116): 2.79 µM; IC50 (CACO-2): 0.79 µM
215 to 218	0.56	COC(=O)[C@H]1Cc2c([nH]c3ccccc23)[C@@H](c2ccc(Cl)cc2Cl)N1C(=O)CCl [Compound 2i, (1R,3R) Methyl 1-(2,4-dichlorophenyl)-2-(2-chloroacetyl)-2,3,4,9-tetrahydro-1H-β-carboline-3-carboxylate]	98	IC50 [1, 3]: 0.56 µM
215 to 218	0.38	COC(=O)[C@@H]1Cc2c([nH]c3ccccc23)[C@H](c2ccc(Cl)cc2Cl)N1C(=O)CCl [Compound 2k, (1S,3S) Methyl 1-(2,4dichlorophenyl)-2-(2-chloroacetyl)-2,3,4,9-tetrahydro-1H-β-carboline-3-carboxylate]	55	–
109 to 112	1.24	COC(=O)[C@@H]1Cc2c([nH]c3ccccc23)[C@@H](c2ccc(Cl)cc2Cl)N1C(=O)CCl [Compound 2l, (1R,3S) Methyl 1-(2,4-dichlorophenyl)-2-(2-chloroacetyl)-2,3,4,9-tetrahydro-1H-β-carboline-3-carboxylate]	98	IC50 [1, 3]: 1.24 µM
283 to 285	> 10	COC(=O)[C@H]1Cc2c([nH]c3ccccc23)[C@@H](c2ccc(Cl)c(Cl)c2)N1C(=O)CCl [Compound 2m, (1R,3R) Methyl 1-(3,4-dichlorophenyl)-2-(2-chloroacetyl)-2,3,4,9-tetrahydro-1H-β-carboline-3-carboxylate]	–	–
163 to 165	1.2	COC(=O)[C@H]1Cc2c([nH]c3ccccc23)[C@H](c2ccc(Cl)c(Cl)c2)N1C(=O)CCl [Compound 2n, (1S,3R) Methyl 1-(3,4dichlorophenyl)-2-(2-chloroacetyl)-2,3,4,9-tetrahydro-1H-β-carboline-3-carboxylate]	50	IC50 (HT-29; Homo sapiens, HT-29, 72 h): > 10 µM
283 to 284	> 10	COC(=O)[C@@H]1Cc2c([nH]c3ccccc23)[C@H](c2ccc(Cl)c(Cl)c2)N1C(=O)CCl [Compound 2o, (1S,3S) Methyl 1-(3,4-dichlorophenyl)-2-(2-chloroacetyl)-2,3,4,9-tetrahydro-1H-β-carboline-3-carboxylate]	43	–
162 to 165	> 10	COC(=O)[C@@H]1Cc2c([nH]c3ccccc23)[C@@H](c2ccc(Cl)c(Cl)c2)N1C(=O)CCl [Compound 2p, (1R,3S) Methyl 1-(3,4-dichloro-phenyl)-2 (2-chloroacetyl)-2,3,4,9-tetrahydro-1H-β-carboline-3-carboxylate]	55	IC50 (HT-29; Homo sapiens, HT-29, 72 h): > 10 µM
147 to 150	–	COC(=O)C1Cc2c([nH]c3ccccc23)C(c2c(Cl)cccc2Cl)N1C(=O)CCl [Compound 2q, (1R,3R) Methyl 1-(2,6-dichlorophenyl)-2-(2-chloroacetyl)-2,3,4,9-tetrahydro 1H-β-carboline-3-carboxylate]	–	% Growth Inhibition at 10 μM ([1]; MDA-MB-231): 99 +/− 0.01%; IC50 [1, 5]: 0.05 µM; IC50 [1, 6]: 0.04 µM; IC50 (HT-29; Homo sapiens, HT-29, 72 h): 1.5 µM
153 to 156	–	COC(=O)C1Cc2c([nH]c3ccccc23)C(c2c(Cl)cccc2Cl)N1C(=O)CCl [Compound 2r, (1S,3S) Methyl 1-(2,6-dichlorophenyl)-2-(2-chloroacetyl)-2,3,4,9-tetrahydro-1H-β-carboline-3-carboxyl]	–	% Growth Inhibition at 10 μM ([1]; MDA-MB-231): 24 +/− 0.54%; IC50 [1, 5]: 0.42 µM; IC50 [1, 6]: 0.44 µM; IC50 (HT-29; 72 h): 1 µM
